Tests used:
HGPS fibroblast cultures = assay: Scoring of abnormally shaped nuclei in fibroblast cultures treated with farnesyltransferase inhibitor; assay type: cell-based, human; conditions: 20 μM FTI-277 daily, after 48 h treatment, HGPS fibroblasts PPDs 35-38; decreased from 31%
Description: Indirect immunofluorescence and Western blot: Primary cultures of dermal fibroblasts were processed for indirect immunofluorescence as described previously (Paradisi et al, 2005). Rabbit antibodies directed against A-type and B-type lamins were described previously (Chaudhary et al, 1993; Cance et al, 1992). Goat anti-lamin B1 M-20 and anti-prelamin A C-20 (Santa Cruz), monoclonal antibodies anti-emerin 4G5 (Novocastra), anti-nucleoporin Nup153 clone 414 (Covance), anti-lamin A Jo14 (Serotec), and anti-Ki-67 (BD Bioscience) were purchased. Secondary antibodies were affinity purified Alexa Fluor 488 goat or donkey IgG antibodies (Molecular Probes) and Cy3-conjugated IgG antibodies (Jackson ImmunoResearch laboratories). All samples were counterstained with DAPI (Sigma-Aldrich). […]
Quantification: The percentages of ki-67 positive cells, of misshapen or blebbing nuclei, and senescence β-gal positive cells were determined by direct count of 300 cells per coverslip in triplicate, and from three independent experiments. […]
To determine the role of farnesylation in HGPS nuclear abnormalities, control and HGPS fibroblast cultures (PPDs 35-38) were treated daily with 20 μM farnesyltransferase inhibitor FTI-277 (Adjei et al, 2000). […] Progerin was also detected in nuclear foci similarly to wild-type prelamin A (FIG. 6B).

[1] = tested on: progerin (LMNA G608G) in HGPS fibroblasts; assay: Immunofluorescence localization of progerin after FTI-277 treatment; assay type: cell-based, human
Description: Indirect immunofluorescence and Western blot: Primary cultures of dermal fibroblasts were processed for indirect immunofluorescence as described previously (Paradisi et al, 2005). Rabbit antibodies directed against A-type and B-type lamins were described previously (Chaudhary et al, 1993; Cance et al, 1992). Goat anti-lamin B1 M-20 and anti-prelamin A C-20 (Santa Cruz), monoclonal antibodies anti-emerin 4G5 (Novocastra), anti-nucleoporin Nup153 clone 414 (Covance), anti-lamin A Jo14 (Serotec), and anti-Ki-67 (BD Bioscience) were purchased. Secondary antibodies were affinity purified Alexa Fluor 488 goat or donkey IgG antibodies (Molecular Probes) and Cy3-conjugated IgG antibodies (Jackson ImmunoResearch laboratories). All samples were counterstained with DAPI (Sigma-Aldrich). When cells were treated daily for 3 days with farnesyltransferase inhibitor FTI-277 (Calbiochem), the culture medium was supplemented with 20 μM FTI-277 or DMSO prior to immunofluorescence analysis as described previously (Adjei et al, 2000). Images were processed using Adobe Photoshop. For Western blot analysis, total cellular protein extracts were isolated from dermal fibroblast cultures at different population doublings (25 to 55) and processed as described previously (Paradisi et al, 2005).
To determine the role of farnesylation in HGPS nuclear abnormalities, control and HGPS fibroblast cultures (PPDs 35-38) were treated daily with 20 μM farnesyltransferase inhibitor FTI-277 (Adjei et al, 2000). After 48 h treatment, the percentage of HGPS nuclei with abnormal shapes decreased from 31% to 8% (FIG. 6A). The intranuclear repartition of prelamin A and the localization of LMNA G608G differed greatly between treated and un-treated cells; prelamin A was not detectable in control or HGPS cells (FIG. 6B). […] Progerin was also detected in nuclear foci similarly to wild-type prelamin A (FIG. 6B).

Structure (SMILES): COC(=O)[C@H](CCSC)NC(=O)c1ccc(NC[C@@H](N)CS)cc1-c1ccccc1 [FTI-277]
- percentage of HGPS nuclei with abnormal shapes (HGPS fibroblast cultures): 8%
- progerin localization (anti-LMNA G608G staining) ([1]; 20 μM FTI-277, 76 h after treatment): progerin was totally depleted from the NE in most nuclei
- progerin localization (anti-LMNA G608G staining) ([1]; 20 μM FTI-277, after 24 h treatment): progerin was still incorporated into the nuclear lamina
- progerin localization (anti-LMNA G608G staining) ([1]; 20 μM FTI-277, after 48 h treatment): progerin was progressively depleted from the NE and lamina

Reference: patent publication US20080292617A1, “ANTIBODY AGAINST A PEPTIDE DERIVED FROM HUMAN MUTANT LAMIN A PROTEIN AND USES THEREOF” (THE TRUSTEES OF COLUMBIA UNIVERSITY IN THE CITY OF NEW YORK, priority 2005, published 2008)
